This is an account of results in paper PMC11124870, “Effect of Antioxidants in Medicinal Products on Intestinal Drug Transporters” (Pharmaceutics, 2024).

Where “and” joins values, the source holds several entries; their conditions need not be identical. Identical values can stand only once. Entries after “also recorded” stand apart in the source; their conditions may differ.

One data set concerns the target T1, P-gp (Homo sapiens, UniProt P08183).
T1 construct: purchased ThermoFisher Scientific GM0015; host or cells: Sf9 membrane vesicles
As to the kind of experiment: Vesicular transport assay, 3H-NMQ uptake in P-gp membrane vesicles. It counts as biochemical. Here is the method: The vesicular transport assay was performed using Spodoptera frugiperda 9 (Sf9) membrane vesicles overexpressing human P-gp or BCRP, as reported previously with minor modifications. In brief, Isoplate 96-well flat-bottom white plates were preincubated with HBSS containing 0.5 mg/mL BSA on an orbital shaker in a 37 °C incubator at 90 rpm for 60 min followed by washing with HBSS. The assay mixture (75 µL/well) contained a probe substrate and either vehicle control, a known inhibitor of P-gp or BCRP, or an antioxidant, in vesicle uptake buffer (50 mM MOPS-Tris, pH 7.0 + 70 mM KCl + 7.5 mM MgCl2) prewarmed to 37 °C. After addition of the assay mixture, 5 μL/well (5 μg/μL stock concentration of the vesicles) of vesicles overexpressing human P-gp or BCRP was added. Uptake assays were initiated by adding 20 μL of either 25 mM adenosine triphosphate (ATP) or 25 mM adenosine monophosphate (AMP) to a final concentration of 5 mM. Plates were incubated at 37 °C for 20 min with orbital shaking (90 rpm). After 20 min, the uptake was quenched by adding 150 μL of ice-cold wash buffer (40 mM MOPS-Tris, pH 7.0 + 70 mM KCl) to each well, and the mixture was transferred to a 96-well filtration plate. Vacuum was applied, and the vesicles were washed three times with wash buffer. Vesicles were then lysed with 100 µL of MicroScint-20.

A further data set addresses T2, OATP2B1 (Homo sapiens, UniProt O94956).
T2 sequence (O94956 1-709): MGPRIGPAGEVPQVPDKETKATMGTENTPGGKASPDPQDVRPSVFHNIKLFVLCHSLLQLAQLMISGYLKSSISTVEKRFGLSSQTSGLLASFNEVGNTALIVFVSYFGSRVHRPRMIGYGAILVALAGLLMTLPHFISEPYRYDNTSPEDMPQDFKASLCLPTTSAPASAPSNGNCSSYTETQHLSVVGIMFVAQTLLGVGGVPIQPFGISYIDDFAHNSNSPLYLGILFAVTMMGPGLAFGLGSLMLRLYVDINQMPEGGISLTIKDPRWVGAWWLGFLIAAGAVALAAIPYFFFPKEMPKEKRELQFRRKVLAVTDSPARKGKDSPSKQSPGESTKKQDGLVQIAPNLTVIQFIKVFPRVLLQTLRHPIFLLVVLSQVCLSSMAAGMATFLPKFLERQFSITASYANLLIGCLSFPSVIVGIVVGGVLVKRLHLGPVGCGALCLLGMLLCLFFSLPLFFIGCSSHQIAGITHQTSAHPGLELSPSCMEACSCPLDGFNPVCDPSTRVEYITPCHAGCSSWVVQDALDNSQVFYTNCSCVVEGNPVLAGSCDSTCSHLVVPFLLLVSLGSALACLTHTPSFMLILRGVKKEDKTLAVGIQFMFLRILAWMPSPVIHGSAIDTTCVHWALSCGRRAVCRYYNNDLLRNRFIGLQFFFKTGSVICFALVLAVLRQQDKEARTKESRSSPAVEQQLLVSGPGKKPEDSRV
The experiment in a line: 3H-valsartan uptake inhibition in HEK-293-OATP2B1 cells. To be noted: read-out: IC50 OATP2B1, valsartan uptake, substrate 3H-valsartan, three independent experiments.

Data set [1] in a line: Estimation of intestinal luminal concentration (Igut), dose/250 mL. To be noted: estimated from maximum oral amount (AP 10 mg, BHA 8 mg) in 250 mL intestinal fluid. Here is the method:
Igut is intestinal luminal concentration estimated as dose/250 mL. The Igut concentration was estimated using the following equation: Igut=A÷MW×V×10^6 where Igut is the estimated intestinal luminal concentration (µM), A is the amount of antioxidant in an oral dosage (mg), MW is the molecular weight, and V is the volume of intestinal fluid, i.e., 250 mL.

In data set [2] the test system is MDCK cell tight junctions. As to the kind of experiment: Lucifer yellow permeability assay of MDCK monolayer integrity. The format is cell-based. To be noted: BHA 250 µM.
Method: The transport assay was performed using MDCK-hMDR1-cMDR1-KO, MDCK-cMDR1-KO, and MDCK-hBCRP-cMDR1-KO as reported previously with minor modifications [14, 27]. In brief, 133,000 cells were seeded onto a Transwell membrane insert, a semipermeable polyethylene terephthalate membrane. During the differentiation process, the medium volume in the apical chamber was kept at 300 μL, while the basal chamber contained 1000 μL. The cells were allowed to differentiate for 7–9 days at 37 °C in a humidified incubator with 5% CO2. Before starting transporter assays, the integrity of the cell monolayer was checked using lucifer yellow permeability assays. Cells were washed twice with HBSS, lucifer yellow (0.1 mg/mL) in HBSS was added to the apical chamber, and the basal chamber was filled with fresh HBSS. The assembled plate was then incubated at 37 °C for 1 h. From the basal chamber, 100 μL samples were collected for fluorescence measurements using GloMax® Explorer with a 475 nm excitation filter and a 500–550 nm emission filter to calculate the percent permeability per well.
At the end of the transport assay, a lucifer yellow permeability assay was performed as described earlier.
Another data set has as its target P-gp (human MDR1) (Homo sapiens, UniProt P08183). As to the kind of experiment: Transwell transport assay, basal-to-apical digoxin flux in MDCK-hMDR1-cMDR1-KO cells. As to conditions: 3H-digoxin 2.5 µM, 4 h. Here is the method:
The transport assay was performed using MDCK-hMDR1-cMDR1-KO, MDCK-cMDR1-KO, and MDCK-hBCRP-cMDR1-KO as reported previously with minor modifications. In brief, 133,000 cells were seeded onto a Transwell membrane insert, a semipermeable polyethylene terephthalate membrane. During the differentiation process, the medium volume in the apical chamber was kept at 300 μL, while the basal chamber contained 1000 μL. The cells were allowed to differentiate for 7–9 days at 37 °C in a humidified incubator with 5% CO2. Before starting transporter assays, the integrity of the cell monolayer was checked using lucifer yellow permeability assays. […] From the basal chamber, 100 μL samples were collected for fluorescence measurements using GloMax® Explorer with a 475 nm excitation filter and a 500–550 nm emission filter to calculate the percent permeability per well.
To assess the flux of digoxin or prazosin from the basal to apical side, the cells were washed twice with HBSS. […] All apical and basal samples were mixed with scintillation fluid (EcoLite(+)™ liquid scintillation cocktail), and their radioactivity was measured using liquid scintillation counting (Beckman LS6500). […] For data analysis, the disintegration per minute counts of digoxin or prazosin from the apical samples were converted to picomoles using radioactivity measured in the substrate solution.

For data set [3] the following is noted: Table S1; source not stated; cited from earlier work.

T1 sequence (P08183 whole entry): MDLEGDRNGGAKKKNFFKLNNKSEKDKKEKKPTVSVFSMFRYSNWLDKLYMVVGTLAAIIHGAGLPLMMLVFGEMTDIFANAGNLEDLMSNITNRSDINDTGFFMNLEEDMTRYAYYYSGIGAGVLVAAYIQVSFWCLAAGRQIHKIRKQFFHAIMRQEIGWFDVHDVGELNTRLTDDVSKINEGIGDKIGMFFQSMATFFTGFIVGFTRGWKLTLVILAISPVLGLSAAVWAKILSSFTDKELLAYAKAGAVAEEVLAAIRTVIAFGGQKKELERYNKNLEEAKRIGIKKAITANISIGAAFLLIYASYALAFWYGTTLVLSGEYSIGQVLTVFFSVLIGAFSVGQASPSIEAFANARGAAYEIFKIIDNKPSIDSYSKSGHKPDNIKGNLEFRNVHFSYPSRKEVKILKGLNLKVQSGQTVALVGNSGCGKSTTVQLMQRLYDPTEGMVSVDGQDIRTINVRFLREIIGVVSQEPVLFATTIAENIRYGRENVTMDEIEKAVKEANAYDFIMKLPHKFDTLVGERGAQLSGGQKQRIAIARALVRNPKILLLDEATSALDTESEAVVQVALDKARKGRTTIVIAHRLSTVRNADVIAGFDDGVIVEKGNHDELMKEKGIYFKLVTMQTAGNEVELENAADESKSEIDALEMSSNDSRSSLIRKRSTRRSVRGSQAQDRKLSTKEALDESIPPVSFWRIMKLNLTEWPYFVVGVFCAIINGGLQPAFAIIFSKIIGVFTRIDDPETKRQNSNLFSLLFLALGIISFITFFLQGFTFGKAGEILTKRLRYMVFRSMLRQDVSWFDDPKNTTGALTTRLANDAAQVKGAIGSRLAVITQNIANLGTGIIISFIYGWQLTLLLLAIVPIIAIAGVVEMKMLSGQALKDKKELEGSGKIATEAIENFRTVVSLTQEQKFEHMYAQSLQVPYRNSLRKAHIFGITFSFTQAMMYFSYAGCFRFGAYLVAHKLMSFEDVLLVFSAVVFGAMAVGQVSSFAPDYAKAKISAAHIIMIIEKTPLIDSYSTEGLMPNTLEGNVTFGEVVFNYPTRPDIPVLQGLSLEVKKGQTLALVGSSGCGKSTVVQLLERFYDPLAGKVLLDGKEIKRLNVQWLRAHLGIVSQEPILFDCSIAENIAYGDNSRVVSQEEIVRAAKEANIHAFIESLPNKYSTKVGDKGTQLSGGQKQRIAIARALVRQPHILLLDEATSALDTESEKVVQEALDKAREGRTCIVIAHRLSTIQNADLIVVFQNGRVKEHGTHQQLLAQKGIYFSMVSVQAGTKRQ
Chain of P-gp (human MDR1) (P08183 whole entry): as above
Method for OATP2B1: The uptake transporter assay was performed as reported previously with minor modifications [15]. A day before the uptake assay, Isoplate 96-well plates were coated with poly-D-lysine in PBS with calcium and magnesium and washed with PBS. […] An assay mixture of ^3H-estrone sulfate, a known inhibitor of OATP2B1, or an antioxidant was prepared and incubated in a 37 °C incubator for 10 min. The cells were washed with ice-cold HBSS three times and incubated with MicroScint fluid on a shaker for 1 h for cell lysis. Radioactivity was measured by liquid scintillation counting with a MicroBeta^2® microplate counter. […] On the day of experiment, cells were washed twice with 0.4 mL of HBSS per well and then pre-incubated for 10–20 min in 0.4 mL of HBSS. […] Uptake of ^3H-valsartan was stopped after 15 min by washing three times with ice-cold HBSS. Cells were lysed in 750 µL of lysis buffer (0.1 N NaOH and 0.1% SDS in double-distilled water) per well while shaking for 60 min. A total of 690 µL of the lysate from each well was then added to 2.5 mL of EcoLite scintillation fluid. The radioactivity was determined on a LS6500 Scintillation Counter (Beckman Coulter). Protein concentration was measured with a Pierce™ BCA protein assay kit. The radioactivity in each well was corrected for protein concentration. All values were determined in triplicate, and the final values are expressed as % uptake relative to negative control (1% DMSO).
Antioxidants were screened at a concentration of 200 μM.

Usually IC50 stands for the midpoint of a concentration-inhibition curve. One may read the LogP as a log measure of how a compound divides between an organic and an aqueous phase. As for `COc1ccc(O)cc1C(C)(C)C` [Butylated hydroxyanisole (BHA), 2-tert-Butyl-4-hydroxyanisole], at P-gp (200 µM, 3H-NMQ), the “Inhibition of P-gp” value is given as “at least 50%”. Also, the “% Uptake of 3H-NMQ P-gp” value on P-gp (antioxidant 200 µM, uptake with DMSO set as 100%, mean ± SD, three replicates, membrane vesicles) is listed as 42.1 ± 5.7%. The IC50 against P-gp (substrate 3H-NMQ, mean ± SD of three independent experiments) is 182 ± 49 µM; on OATP2B1, 19 µM and 19.1 µM. Besides, the “Max Intestinal Conc (µM) in 250 mL Fluid” value in data set [1] was 178 µM. For the same molecule, the “Effect on MDCK cell tight junctions (lucifer yellow permeability)” value in data set [2] is recorded as “disrupted MDCK cell tight junctions”. In addition, the “Inhibition of digoxin transport (basal to apical)” value is listed as “Neither the estimated maximal intestinal concentration of 178 µM nor a lower concentration (62.5 µM) inhibited digoxin transport” at P-gp (human MDR1) (BHA 62.5 µM on both sides) and “Neither the estimated maximal intestinal concentration of 178 µM nor a lower concentration (62.5 µM) inhibited digoxin transport; also recorded: did not impede digoxin transport” on P-gp (human MDR1) (BHA 178 µM on both sides). Further, the LogP in data set [3] is reported as 3.2.
